US7879795B2, “Enhancement of tigecycline potency using efflux pump inhibitors” (Mpex Pharmaceuticals, Inc., priority 2004, dated 2011)

What was measured:
[1] = Tissue levels after 2-hour IV infusion in rats; format: in vivo, rat; conditions: for concentration at 4 h: 2 h after end of 2-hour IV infusion; for concentration at 4 h / concentration at 2 h / concentration at 6 h: 10 mg/kg; for concentration at 2 h: end of 2-hour IV infusion; for tissue levels and clearance from tissues after 2-hour IV infusion: rat, in words; for concentration at 6 h: 4 h after end of 2-hour IV infusion
Protocol: Levels of EPIs in various tissues were evaluated after 2-hour IV infusion in rats. The rats received 10 mg/kg IV infusion through FVC. Animals were divided into 2 groups: group 1 was sacrificed immediately after the end of infusion and group 2, 2 h or 4 h after the end of infusion. Tissues from each animal were collected, homogenized and compounds were extracted. Tissues were mixed with saline at 1:1 ratio (v/w) in 12×75 mm polypropylene round bottom tubes. The mixtures were homogenized with a Polytron homogenizer (on ice, 3×10-15 seconds with 30 seconds intervals at the setting of 7). 50 μl of homogenized tissue were immediately transferred to an Eppendorf tube and 2-volumes of 4% TCA were added. After vortexing for 30 seconds, the tubes were centrifuged in a microfuge at top speed (13.2 k rpm) for 5 minutes. The supernatant was collected, and 45 μl of the supernatant was transferred to a glass LC/MS/MS vial (Kimble, 11 mm, 1.5 ml) for analysis, which allowed determination of tissue levels of EPIs at the end of the infusion and 2 h or 4 h later.

[2] = system: P. aeruginosa strain PAM1723 overexpressing MexAB-OprM efflux pump; assay: Neutropenic mice thigh model of PA infection; format: in vivo; conditions: levofloxacin 30 mg/kg SQ, EPI 60 mg/kg IP, 2 hours post-infection
Protocol: Efficacy of the EPIs was evaluated in a Neutropenic Mice Thigh Model of P. aeruginosa Infection. Neutropenia was induced by cyclophosphamide 100 mg/kg IP on days 3 and 1 prior to infection. P. aeruginosa strain PAM1723 overexpressing MexAB-OprM efflux pump was grown overnight in Mueller-Hinton Broth (MHB). The next day, the overnight culture was diluted in fresh MHB and was allowed to re-grow to ˜10^8 CFU/mL (OD600˜0.3). The culture was spun down, washed twice with phosphate buffered saline (PBS) and re-suspend in PBS to ˜4×10^6 CFU/mL. Next, this culture was mixed 1:1 with 14% hog-gastric mucin in PBS to give a final inoculum of 2×10^6 CFU/mL. Infection was initiated with injection of 0.1 mL of inoculum (˜2×10^5 CFU/thigh) directly into both thighs of each mouse. Two mice from each treatment group were euthanized at various times after the start of treatment. The thighs were removed aseptically, homogenized in saline, and immediately plated to determine bacterial load (CFU/ml). Treatment was initiated 2 hours post infection.

[3] = Rat serum pharmacokinetics after 2-hour IV infusion; format: in vivo; conditions: serum, 2-hour IV infusion, total dose 10 mg/kg, two-compartment model
Protocol: Rat serum pharmacokinetics of compounds 1, 3, 7, and 21 was evaluated after 2-hour IV infusion of 1 mg/ml EPI solution in 0.9% saline. Total infused dose was 10 mg/kg. FIG. 12 depicts the serum concentrations as a function of time. A two-compartment model was used to fit the data and calculate PK parameters.

[4] = In vitro stability in rat serum and tissue homogenates (LC/MS/MS); format: in vitro ADME
Protocol: To test the stability of the compounds in vitro, samples were prepared and analyzed by LC/MS/MS according to the following procedure.
Homogenization: A chunk of fresh tissue was weighed and mixed with saline at 1:1 ratio (w/v) in a 12×75 mm polypropylene round bottom tube. The mixture was homogenized with a Polytron homogenizer (on ice, 3×10 seconds with 10 second intervals at the setting of 7).
Incubation and TCA-precipitation: An appropriate amount of a tissue homogenate was pre-warmed at 37° C. for 2 minutes in an Eppendorf tube. The compound to be tested was added to the tube to a final concentration of 2 μg/ml, mixed, and a 60 μl aliquot was immediately taken (as 0 hour sample) and mixed with 120 μl of 4% TCA (trichloroacetic acid) in an Eppendorf tube. The temperature of the tube containing the rest of the tissue sample was returned to 37° C. for incubation. Later, samples were taken as scheduled and mixed with TCA as described above. Plasma and lavage samples were directly incubated with the compounds without addition of saline and homogenization.
LC/MS/MS sample vial preparation: TCA-precipitated sample tubes were vortexed for 30 seconds, centrifuged in a microfuge at top speed (13.2 k rpm) for 5 minutes. The supernatant was collected. The pH was neutralized to about 3.5 with ammonium acetate buffer. The sample (45 μl) was transferred to a glass LC/MS/MS vial (Kimble, 11 mm, 1.5 ml) and 5 μl of an internal standard was added to a final concentration of 500 ng/ml. LC/MS/MS analysis was performed in Chemistry Department of San Diego State University.
LC/MS/MS protocol: Thermo-Finnigan TSQ Quantum triple sector mass spectrometer with electrospray (ESI) ionization was used to analyze the samples. The operation conditions were: Mobile phase of pH 3.00 water/formic acid: acetonitrile-methanol (45%:5%:50% by volume); Thermo-Keystone Betabasic C-18 column (2.1 mm×50 mm) operated at 0.100 mL/min.
Many proteases responsible for degrading EPI compounds are located in […]. Lysozymes typically have an acidic pH (about 4.8-5), whereas the pH in tissue homogenates that were prepared was higher (kidney, pH 6.8; liver, pH 6.6; and lung, pH 7.5). To test the effect of tissue homogenates closer to physiological conditions, the pH was lowered to about 6 by adding acetic acid to the tissue homogenates and compound stability was tested. FIG. 2 depicts the stability of compounds 1 and 3 at different pH. […] The pH-dependent degradation of compound 3 was especially evident in kidney homogenates.
FIG. 4 is a bar graph depicting the stability of compound 3 in the supernatant and pellet of kidney tissue homogenates.

With `NCCC[C@@H](N)C(=O)N[C@H](CCc1ccccc1)C(=O)Nc1cnc2ccccc2c1` [Compound 1, 2-(R),5-Diamino-pentanoic acid [3-phenyl-1-(R)-(quinolin-3-ylcarbamoyl)-propyl]-amide] the “2 h/4 h Ratio” value ([1]; rat brain concentration) was 1.34, the concentration at 4 h ([1]; rat brain) was 130 ng/mL and the concentration at 2 h ([1]; rat brain) was 180 ng/mL. The “2 h/4 h Ratio” value ([1]; rat heart concentration) was 0.93, the concentration at 4 h ([1]; rat heart) was 2340 ng/mL and the concentration at 2 h ([1]; rat heart) was 2180 ng/mL. The “2 h/4 h Ratio” value ([1]; rat kidney concentration) was 1.66, the concentration at 4 h ([1]; rat kidney) was 29600 ng/mL and the concentration at 2 h ([1]; rat kidney) was 49300 ng/mL. For the same compound, the “2 h/4 h Ratio” value ([1]; rat liver concentration) was 0.99, the concentration at 4 h ([1]; rat liver) was 10600 ng/mL and the concentration at 2 h ([1]; rat liver) was 10600 ng/mL. The “2 h/4 h Ratio” value ([1]; rat lung concentration) was 1.55, the concentration at 4 h ([1]; rat lung) was 4180 ng/mL and the concentration at 2 h ([1]; rat lung) was 6500 ng/mL. The “2 h/4 h Ratio” value ([1]; rat muscle concentration) was 1.59, the concentration at 4 h ([1]; rat muscle) was 2860 ng/mL and the concentration at 2 h ([1]; rat muscle) was 4540 ng/mL. For the same compound, the “2 h/4 h Ratio” value ([1]; rat pancreas concentration) was 1.34, the concentration at 4 h ([1]; rat pancreas) was 4050 ng/mL and the concentration at 2 h ([1]; rat pancreas) was 5400 ng/mL. For the same compound, the “2 h/4 h Ratio” value ([1]; rat spleen concentration) was 1.35, the concentration at 4 h ([1]; rat spleen) was 3710 ng/mL and the concentration at 2 h ([1]; rat spleen) was 5010 ng/mL. For the same compound, the “2 h/4 h Ratio” value ([1]; rat testicles concentration) was 2.04, the concentration at 4 h ([1]; rat testicles) was 280 ng/mL and the concentration at 2 h ([1]; rat testicles) was 580 ng/mL. The “2 h/4 h Ratio” value ([1]; rat thymus concentration) was 1.23, the concentration at 4 h ([1]; rat thymus) was 2760 ng/mL and the concentration at 2 h ([1]; rat thymus) was 3410 ng/mL. For the same compound, the “tissue levels and clearance from tissues after 2-hour IV infusion” value [1] was “High levels”, the “bacterial load in thighs, EPI with levofloxacin versus levofloxacin alone” value [2] was “significantly enhanced activity of levofloxacin” and the clearance [3] was 24 mL/min/kg. The “compound left after 16 hrs of incubation” value ([4]; all of the tissues tested (rat serum, tissue homogenates), 37° C., 2 μg/ml) was 70-80%, the “stability in supernatant of rat kidney tissue homogenates” value ([4]; in words) was “neither compound 1 nor compound 4 show any instability” and the “stability in tissue homogenates at pH lowered to about 6 versus no pH change” value ([4]; rat kidney, liver, lung homogenates, acetic acid) was “essentially unchanged”. For the same compound, the “stability in all of the tissues tested” value ([4]; rat, in words) was “highly stable”.
For `NCCC[C@H](N)C(=O)N[C@H](Cc1ccc(C(F)(F)F)cc1)C(=O)Nc1cnc2ccccc2c1` [Compound 21, 2-(S),5-Diamino-pentanoic acid [1-(R)-(quinolin-3-ylcarbamoyl)-2-(4-trifluoromethyl-phenyl)-ethyl]amide], the “2 h/6 h Ratio” value ([1]; rat brain concentration) was 16.37, the concentration at 4 h ([1]; rat brain) was 470 ng/mL and the concentration at 6 h ([1]; rat brain) was 30 ng/mL. The concentration at 2 h ([1]; rat brain) was 490 ng/mL, the “2 h/6 h Ratio” value ([1]; rat heart concentration) was 7.33 and the concentration at 4 h ([1]; rat heart) was 1760 ng/mL. The concentration at 6 h ([1]; rat heart) was 720 ng/mL, the concentration at 2 h ([1]; rat heart) was 5250 ng/mL and the “2 h/6 h Ratio” value ([1]; rat kidney concentration) was 20.10. For the same compound, the concentration at 4 h ([1]; rat kidney) was 20800 ng/mL, the concentration at 6 h ([1]; rat kidney) was 2920 ng/mL and the concentration at 2 h ([1]; rat kidney) was 58700 ng/mL. For the same compound, the “2 h/6 h Ratio” value ([1]; rat liver concentration) was 30.21, the concentration at 4 h ([1]; rat liver) was 2320 ng/mL and the concentration at 6 h ([1]; rat liver) was 200 ng/mL. The concentration at 2 h ([1]; rat liver) was 5950 ng/mL, the “2 h/6 h Ratio” value ([1]; rat lung concentration) was 3.43 and the concentration at 6 h ([1]; rat lung) was 3900 ng/mL. For the same compound, the concentration at 2 h ([1]; rat lung) was 13400 ng/mL, the “2 h/6 h Ratio” value ([1]; rat muscle concentration) was 3.94 and the concentration at 4 h ([1]; rat muscle) was 1360 ng/mL. The concentration at 6 h ([1]; rat muscle) was 1210 ng/mL, the concentration at 2 h ([1]; rat muscle) was 4750 ng/mL and the “2 h/6 h Ratio” value ([1]; rat pancreas concentration) was 20.73. For the same compound, the concentration at 4 h ([1]; rat pancreas) was 1580 ng/mL, the concentration at 6 h ([1]; rat pancreas) was 470 ng/mL and the concentration at 2 h ([1]; rat pancreas) was 9710 ng/mL. For the same compound, the “2 h/6 h Ratio” value ([1]; rat spleen concentration) was 3.46, the concentration at 4 h ([1]; rat spleen) was 4440 ng/mL and the concentration at 6 h ([1]; rat spleen) was 2210 ng/mL. For the same compound, the concentration at 2 h ([1]; rat spleen) was 7660 ng/mL, the “2 h/6 h Ratio” value ([1]; rat testicles concentration) was 8.32 and the concentration at 4 h ([1]; rat testicles) was 330 ng/mL. For the same compound, the concentration at 6 h ([1]; rat testicles) was 80 ng/mL, the concentration at 2 h ([1]; rat testicles) was 700 ng/mL and the “2 h/6 h Ratio” value ([1]; rat thymus concentration) was 2.02. The concentration at 4 h ([1]; rat thymus) was 6000 ng/mL, the concentration at 6 h ([1]; rat thymus) was 3590 ng/mL and the concentration at 2 h ([1]; rat thymus) was 7250 ng/mL. For the same compound, the “tissue levels and clearance from tissues after 2-hour IV infusion” value [1] was “Slower clearance”, the “bacterial load in thighs, EPI with levofloxacin versus levofloxacin alone” value [2] was “significantly enhanced activity of levofloxacin” and the clearance [3] was 16.2 mL/min/kg.
